Read-outs that look alike come from different tables or passages of the source.
Legend:
Assay type in all cases: cell-based, human
[1] = tested on: p-ERK in AGS cells (KRAS G12D mutation); test: Cell p-ERK assay (HTRF, Advance ERK phospho-T202/Y204 kit); conditions: read-out: AGS p-ERK IC50
Method in brief: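 AGS cells (endogenous KRAS G12D) seeded at ~20000 cells/well overnight, then treated 3 h with 3.16-fold compound dilutions, 0.1% DMSO final. Lysates assayed for phospho-T202/Y204 ERK by HTRF after 4 h antibody incubation; inhibition vs DMSO and blank, IC50 by four-parameter fit.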

[2] = tested on: AsPC-1 cells (KRAS G12D mutation); test: Cell proliferation inhibition assay, 3D, CellTiter-Glo 3D, AsPC-1; conditions: AsPC-1 3D sphere model, 5 days incubation
Method in brief: (§1)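 Spheroids (800 AsPC-1 or 400 AGS cells/well; RPMI-1640 or F-12K with 10% FBS) formed overnight, then were dosed on day 2 with a 3.16-fold series at 0.1% DMSO. After 5 days, viability was read by CellTiter-Glo 3D luminescence, and IC50 came from four-parameter fits of inhibition versus DMSO control and medium blank.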

AGS cells (KRAS G12D) = test: Cell proliferation inhibition assay, 3D, CellTiter-Glo 3D, AGS; conditions: AGS 3D sphere model, 5 days incubation
Method in brief: as §1

[3] = Homo sapiens, AGS cells, 3 hours incubation with compound, HTRF

IC50 ([1]; AGS cells, 3 hours incubation with compound, HTRF)	IC50 [2]	IC50 (AGS cells (KRAS G12D))	SMILES	IC50 [1, 3]	IC50 ([2]; Homo sapiens, ASPC1, 120 h)	IC50 (AGS cells (KRAS G12D); Homo sapiens, 120 h)	IC50 ([1]; Homo sapiens, AGS, 3 h)
			C#Cc1cccc2cccc(-c3nc4c5c(nc(OC[C@@]67CCCN6C[C@H](F)C7)nc5c3F)N3C[C@H]5CC[C@H](N5)[C@H]3[C@H](CC)O4)c12 [Example Z387, (5S,5aS,6S,9R)-5-ethyl-2-(8-ethynylnaphthalen-1-yl)-1-fluoro-12-(((2R,7aS)-2-fluorotetrahydro-1H-pyrrolizin-7a (5H)-yl)methoxy)-5a,6,7,8,9,10-hexahydro-5H-4-oxa-3,10a, 11,13,14-pentaaza-6,9-methanonaphtho[1,8-ab]heptalene]	50.2 nM	202 nM	73.3 nM	
			C#Cc1c(F)ccc2cccc(-c3nc4c5c(nc(OC[C@]67CCCN6CC(=C)C7)nc5c3F)N3C[C@H]5CC[C@H](N5)[C@H]3[C@H](C)O4)c12 (single isomer, unassigned) [Example Z636]	10.5 nM	30.6 nM	10.9 nM	
			C#Cc1cccc2cccc(-c3nc4c5c(nc(OC[C@@]67CCCN6C[C@H](F)C7)nc5c3F)N3C[C@H]5CC[C@H](N5)[C@H]3[C@H](C)O4)c12 [Example Z360-1, (5S,5aS,6S,9R)-2-(8-ethynylnaphthalen-1-yl)-1-fluoro-12-(((2R,7aS)-2-fluorotetrahydro-1H-pyrrolizin-7a (5H)-yl)methoxy)-5-methyl-5a,6,7,8,9,10-hexahydro-5H-4-oxa-3,10a, 11,13,14-pentaaza-6,9-methanonaphtho[1,8-ab]heptalene]	29.9 nM	36.4 nM	27.8 nM	
			C#Cc1c(F)ccc2cccc(-c3nc4c5c(nc(OC[C@@]67CCCN6CC(=C)C7)nc5c3F)N3C[C@H]5CC[C@H](N5)[C@H]3[C@H](C)O4)c12 [Example Z637, (5S,5aS,6S,9R)-2-(8-ethynyl-7-fluoronaphthalen-1-yl)-1-fluoro-5-methyl-12-(((S)-2-methylenetetrahydro-1H-pyrrolizin-7a (5H)-yl)methoxy)-5a,6,7,8,9,10-hexahydro-5H-4-oxa-3,10a,11,13,14-pentaaza-6,9-methanonaphtho[1,8-ab]heptalene]	48.8 nM	112 nM	67.6 nM	
			C#Cc1cccc2cc(O)cc(-c3nc4c5c(nc(OC[C@@]67CCCN6C[C@H](F)C7)nc5c3F)N3C[C@H]5CC[C@H](N5)[C@H]3[C@H](CC)O4)c12 [Example Z386, 4-((5S,5aS,6S,9R)-5-Ethyl-1-Fluoro-12-(((2R,7aS)-2-Fluorotetrahydro-1H-Pyrrolizin-7a (5H)-Yl)Methoxy)-5a,6,7,8,9,10-Hexahydro-5H-4-Oxa-3,10a,11,13,14-Pentaaza-6,9-Methanonaphtho[1,8-Ab]Heptalen-2-Yl)-5-Ethynylnaphthalen-2-Ol]	0.76 nM	14.7 nM	2.4 nM	
4.71 nM	77.7 nM	36.1 nM	C#Cc1c(F)ccc2cccc(-c3nc4c5c(nc(OC[C@]67CC(=C)CN6CC[C@@H]7OC)nc5c3F)N3C[C@H]5CC[C@H](N5)[C@H]3[C@H](C)O4)c12 (single isomer, unassigned) [Example Z695]				
			C#Cc1cccc2cc(N)cc(-c3nc4c5c(nc(OCC67CC(=C)CN6CC(F)(F)C7)nc5c3F)N3C[C@H]5CC[C@H](N5)[C@H]3[C@H](C)O4)c12 (stereo partly drawn) [Example Z711, 4-((5S,5aS,6S,9R)-12-((2,2-difluoro-6-methylenetetrahydro-1H-pyrrolizin-7a (5H)-yl)methoxy)-1-fluoro-5-methyl-5a,6,7,8,9,10-hexahydro-5H-4-oxa-3,10a,11,13,14-pentaaza-6,9-methanonaphtho[1,8-ab]heptalen-2-yl)-5-ethynylnaphthalen-2-amine]	13.3 nM	85.6 nM	54.2 nM	
			C#Cc1c(F)ccc2cccc(-c3nc4c5c(nc(OCC67CCCN6CC(=CF)C7)nc5c3F)N3C[C@H]5CC[C@H](N5)[C@H]3[C@H](C)O4)c12 (stereo partly drawn) [Example Z601, (5S,5aS,6S,9R)-2-(8-ethynyl-7-fluoronaphthalen-1-yl)-1-fluoro-12-((2-(fluoromethylene)tetrahydro-1H-pyrrolizin-7a (5H)-yl)methoxy)-5-methyl-5a,6,7,8,9,10-hexahydro-5H-4-oxa-3,10a, 11, 13, 14-pentaaza-6,9-methanonaphtho[1,8-ab]heptalene]	10.5 nM	39 nM	13.5 nM	
			C#Cc1c(F)ccc2cccc(-c3nc4c5c(nc(OCC67CC(O)CN6CCC7=C)nc5c3F)N3C[C@H]5CC[C@H](N5)[C@H]3[C@H](C)O4)c12 (stereo partly drawn) [Example Z674, 7a-((((5S,5aS,6S,9R)-2-(8-ethynyl-7-fluoronaphthalen-1-yl)-1-fluoro-5-methyl-5a,6,7,8,9,10-hexahydro-5H-4-oxa-3,10a, 11, 13, 14-pentaaza-6,9-methanonaphtho[1,8-ab]heptalen-12-yl)oxy)methyl)-7-methylenehexahydro-1H-pyrrolizin-2-ol]	10.7 nM	475 nM	108 nM	
			C#Cc1c(F)ccc2cccc(-c3nc4c5c(nc(OC[C@@]67CCCN6C[C@H]6C[C@H]67)nc5c3F)N3C[C@H]5CC[C@H](N5)[C@H]3[C@H](C)O4)c12 (single isomer, unassigned) [Example Z627-2]	59.3 nM	287 nM	83.4 nM	
			C#Cc1cccc2cc(N)cc(-c3nc4c5c(nc(OCC6(CO)CC6)nc5c3F)N3C[C@H]5CC[C@H](N5)[C@H]3[C@H](C)O4)c12 [Example Z701, (1-((((5S,5aS,6S,9R)-2-(3-amino-8-ethynylnaphthalen-1-yl)-1-fluoro-5-methyl-5a,6,7,8,9,10-hexahydro-5H-4-oxa-3,10a, 11,13,14-pentaaza-6,9-methanonaphtho[1,8-ab]heptalen-12-yl)oxy)methyl)cyclopropyl)methanol]	39.5 nM	245 nM	230 nM	
			C#Cc1cccc2cc(N)cc(-c3nc4c5c(nc(OCC6(CN7CC[C@@H](F)C7)CC6)nc5c3F)N3C[C@H]5CC[C@H](N5)[C@H]3[C@H](C)O4)c12 [Example Z710, 5-Ethynyl-4-((5S,5aS,6S,9R)-1-Fluoro-12-((1-(((R)-3-Fluoropyrrolidin-1-Yl)Methyl)Cyclopropyl)Methoxy)-5-Methyl-5a,6,7,8,9,10-Hexahydro-5H-4-Oxa-3,10a,11,13,14-Pentaaza-6,9-Methanonaphtho[1,8-Ab]Heptalen-2-Yl) Naphthalen-2-Amine]	0.34 nM	3.72 nM	4.26 nM	
			C#Cc1c(F)ccc2cc(O)cc(-c3nc4c5c(nc(OCC6(CO)CC6)nc5c3F)N3C[C@H]5CC[C@H](N5)[C@H]3[C@H](C)O4)c12 [Example Z708, 5-ethynyl-6-fluoro-4-((5S,5aS,6S,9R)-1-fluoro-12-((1-(hydroxymethyl)cyclopropyl)methoxy)-5-methyl-5a,6,7,8,9,10-hexahydro-5H-4-oxa-3,10a, 11,13,14-pentaaza-6,9-methanonaphtho[1,8-ab]heptalene-2-yl) naphthalen-2-ol]		941 nM	176 nM	38.5 nM
			C#Cc1c(F)ccc2cccc(-c3nc4c5c(nc(OCC6(CN7CCC(=C)C7)CC6)nc5c3F)N3C[C@H]5CC[C@H](N5)[C@H]3[C@H](C)O4)c12 [Example Z698, (5S,5aS,6S,9R)-2-(8-Ethynyl-7-Fluoronaphthalen-1-Yl)-1-Fluoro-5-Methyl-12-((1-((3-Methylenepyrrolidin-1-Yl)Methyl)Cyclopropyl)Methoxy)-5a,6,7,8,9,10-Hexahydro-5H-4-Oxa-3,10a,11,13,14-Pentaaza-6,9-Methanonaphtho[1,8-Ab]Heptalene]	21.7 nM	49.3 nM	18.8 nM	
			C#Cc1c(F)ccc2cccc(-c3nc4c5c(nc(OCC67CC8(CC8)CN6CC6(CC6)C7)nc5c3F)N3C[C@H]5CC[C@H](N5)[C@H]3[C@H](C)O4)c12 [Example Z628]	45.5 nM	144 nM	40 nM	
			C#Cc1c(F)ccc2cccc(-c3nc4c5c(nc(OCC67CCCN6[C@@H]6C[C@@H]6C7)nc5c3F)N3C[C@H]5CC[C@H](N5)[C@H]3[C@H](C)O4)c12 (stereo partly drawn) [Example Z624, (5S,5aS,6S,9R)-2-(8-ethynyl-7-fluoronaphthalen-1-yl)-1-fluoro-12-(((1aR,6aR)-hexahydrocyclopropa[b]pyrrolizin-5a (3H)-yl)methoxy)-5-methyl-5a,6,7,8,9,10-hexahydro-5H-4-oxa-3,10a, 11, 13, 14-pentaaza-6,9-methanonaphtho[1,8-ab]heptalene]	47.3 nM	194 nM	88.2 nM	
			C#Cc1cccc2cc(N)cc(-c3nc4c5c(nc(OCC6(CN7CCC(F)(F)C7)CC6)nc5c3F)N3C[C@H]5CC[C@H](N5)[C@H]3[C@H](C)O4)c12 [Example Z712, 4-((5S,5aS,6S,9R)-12-((1-((3,3-difluoropyrrolidin-1-yl)methyl)cyclopropyl)methoxy)-1-fluoro-5-methyl-5a,6,7,8,9,10-hexahydro-5H-4-oxa-3,10a, 11, 13, 14-pentaaza-6,9-methanonaphtho[1,8-ab]heptalen-2-yl)-5-ethynylnaphthalen-2-amine]	28.2 nM	30.4 nM	60.7 nM	
